Test results reported in ChEMBL document CHEMBL3885861, “Open TG-GATES”.

Species on record: Rattus norvegicus
Experiment: Open TG-GATES - Regimen: Single
Type: toxicity, organism-based, Sprague-Dawley
Design: regimen Single, gender Male, age 6 weeks
Settings: in vivo, po, 30 mg/kg, route gavage, dose level Low; for APTT / Bas / Eos / Fbg / Hb / Ht / Lym / MCH / MCHC / MCV / Mono / Neu / PT / Plat / RBC / Ret / WBC: tissue Blood; for KIDNEY_L / KIDNEY_R / KIDNEY_TOTAL: tissue Kidney; for LIVER: tissue Liver; for A/G / ALP / ALT / AST / BUN / CRE / Ca / Cl / DBIL / GLC / IP / K / LDH / Na / PL / RALB / TBIL / TC / TG / TP / gamma-GTP: tissue Plasma

CCCNC(=O)NS(=O)(=O)c1ccc(Cl)cc1 [CHLORPROPAMIDE]
TERMINAL_BW (3 h): 200 g | APTT (3 h): 16.8 s | Bas (3 h): 0.4% | Eos (3 h): 0.8% | Fbg (3 h): 301.8 mg/dL | Hb (3 h): 13.1 g/dL | Ht (3 h): 40% | Lym (3 h): 76.8% | MCH (3 h): 20.9 pg | MCHC (3 h): 32.7% | MCV (3 h): 64 fL | Mono (3 h): 3.6% | Neu (3 h): 17.8% | PT (3 h): 15.6 s | Plat (3 h): 122.9 x10_4/uL | RBC (3 h): 625.4 x10_4/ul | Ret (3 h): 9.8% | WBC (3 h): 80.3 x10_2/uL | KIDNEY_L (3 h): 0.9 g | KIDNEY_R (3 h): 0.9 g | KIDNEY_TOTAL (3 h): 1.8 g | LIVER (3 h): 8.7 g | A/G (3 h): 0.9 | ALP (3 h): 1308.8 IU/L | ALT (3 h): 44 IU/L | AST (3 h): 74.4 IU/L | BUN (3 h): 10.6 mg/dL | CRE (3 h): 0.2 mg/dL | Ca (3 h): 10.8 mg/dL | Cl (3 h): 106.2 meq/L | DBIL (3 h): 0.008 mg/dL | GLC (3 h): 154.4 mg/dL | IP (3 h): 9.5 mg/dL | K (3 h): 4 meq/L | LDH (3 h): 83.6 IU/L | Na (3 h): 143 meq/L | PL (3 h): 131.4 mg/dL | RALB (3 h): 2.5 g/dL | TBIL (3 h): 0.038 mg/dL | TC (3 h): 74.2 mg/dL | TG (3 h): 47.2 mg/dL | TP (3 h): 5.4 g/dL | gamma-GTP (3 h): 1.2 IU/L | TERMINAL_BW (6 h): 197.5 g | APTT (6 h): 17.5 s | Bas (6 h): 0.2% | Eos (6 h): 1% | Fbg (6 h): 277.8 mg/dL | Hb (6 h): 13.3 g/dL | Ht (6 h): 40.8% | Lym (6 h): 74.4% | MCH (6 h): 21 pg | MCHC (6 h): 32.7% | MCV (6 h): 64.3 fL | Mono (6 h): 2.8% | Neu (6 h): 20.4% | PT (6 h): 15.4 s | Plat (6 h): 114.9 x10_4/uL | RBC (6 h): 633.4 x10_4/ul | Ret (6 h): 9.6% | WBC (6 h): 80.6 x10_2/uL | KIDNEY_L (6 h): 0.9 g | KIDNEY_R (6 h): 0.9 g | KIDNEY_TOTAL (6 h): 1.8 g | LIVER (6 h): 8.1 g | A/G (6 h): 0.9 | ALP (6 h): 1395.6 IU/L | ALT (6 h): 41 IU/L | AST (6 h): 75.4 IU/L | BUN (6 h): 9 mg/dL | CRE (6 h): 0.2 mg/dL | Ca (6 h): 10.5 mg/dL | Cl (6 h): 106.8 meq/L | DBIL (6 h): 0.004 mg/dL | GLC (6 h): 150.8 mg/dL | IP (6 h): 9.4 mg/dL | K (6 h): 4.2 meq/L | LDH (6 h): 72.6 IU/L | Na (6 h): 143 meq/L | PL (6 h): 123.6 mg/dL | RALB (6 h): 2.5 g/dL | TBIL (6 h): 0.036 mg/dL | TC (6 h): 74.2 mg/dL | TG (6 h): 35.4 mg/dL | TP (6 h): 5.2 g/dL | gamma-GTP (6 h): 1 IU/L | TERMINAL_BW (9 h): 194.6 g | APTT (9 h): 16.9 s | Bas (9 h): 0% | Eos (9 h): 1.2% | Fbg (9 h): 296 mg/dL | Hb (9 h): 13.2 g/dL | Ht (9 h): 40.5% | Lym (9 h): 77.4% | MCH (9 h): 21.4 pg | MCHC (9 h): 32.6% | MCV (9 h): 65.5 fL | Mono (9 h): 3.2% | Neu (9 h): 17.2% | PT (9 h): 15.4 s | Plat (9 h): 118 x10_4/uL | RBC (9 h): 618.6 x10_4/ul | Ret (9 h): 9.1% | WBC (9 h): 84.5 x10_2/uL | KIDNEY_L (9 h): 0.9 g | KIDNEY_R (9 h): 0.9 g | KIDNEY_TOTAL (9 h): 1.7 g | LIVER (9 h): 7.7 g | A/G (9 h): 0.9 | ALP (9 h): 1280.4 IU/L | ALT (9 h): 38 IU/L | AST (9 h): 70.8 IU/L | BUN (9 h): 9.8 mg/dL | CRE (9 h): 0.2 mg/dL | Ca (9 h): 10.6 mg/dL | Cl (9 h): 107.8 meq/L | DBIL (9 h): 0.002 mg/dL | GLC (9 h): 158.4 mg/dL | IP (9 h): 9.8 mg/dL | K (9 h): 4.1 meq/L | LDH (9 h): 62.2 IU/L | Na (9 h): 143.4 meq/L | PL (9 h): 134 mg/dL | RALB (9 h): 2.5 g/dL | TBIL (9 h): 0.032 mg/dL | TC (9 h): 81.4 mg/dL | TG (9 h): 43.4 mg/dL | TP (9 h): 5.4 g/dL | gamma-GTP (9 h): 1 IU/L | TERMINAL_BW (24 h): 210.7 g | APTT (24 h): 26 s | Bas (24 h): 0% | Eos (24 h): 1% | Fbg (24 h): 290 mg/dL | Hb (24 h): 13 g/dL | Ht (24 h): 40.1% | Lym (24 h): 79.2% | MCH (24 h): 21.4 pg | MCHC (24 h): 32.4% | MCV (24 h): 65.9 fL | Mono (24 h): 3% | Neu (24 h): 15.2% | PT (24 h): 15.6 s | Plat (24 h): 120.5 x10_4/uL | RBC (24 h): 608.2 x10_4/ul | Ret (24 h): 8.4% | WBC (24 h): 96.6 x10_2/uL | KIDNEY_L (24 h): 0.9 g | KIDNEY_R (24 h): 0.9 g | KIDNEY_TOTAL (24 h): 1.9 g | LIVER (24 h): 9.6 g | A/G (24 h): 0.9 | ALP (24 h): 1710 IU/L | ALT (24 h): 47.6 IU/L | AST (24 h): 73 IU/L | BUN (24 h): 15 mg/dL | CRE (24 h): 0.2 mg/dL | Ca (24 h): 10.8 mg/dL | Cl (24 h): 105.4 meq/L | DBIL (24 h): 0.01 mg/dL | GLC (24 h): 192.8 mg/dL | IP (24 h): 8.4 mg/dL | K (24 h): 4.1 meq/L | LDH (24 h): 78.4 IU/L | Na (24 h): 142.4 meq/L | PL (24 h): 150.2 mg/dL | RALB (24 h): 2.6 g/dL | TBIL (24 h): 0.034 mg/dL | TC (24 h): 84 mg/dL | TG (24 h): 73.8 mg/dL | TP (24 h): 5.5 g/dL | gamma-GTP (24 h): 1 IU/L
